In US11208387B2, “Macrocyclic broad spectrum antibiotics” (Genentech, Inc., priority 2019, dated 2021):
pIC50: −log10 of the molar value. ≈ marks a conversion by molar mass, not a printed value. Like-named read-outs stand apart in the source and are kept apart here.

Tests used:
[1] = test system: isolated liver mitochondria; assay: Mitochondrial oxygen consumption rate (OCR) assay; type: biochemical, Sprague-Dawley rats; conditions: isolated rat liver mitochondria, state 3 (S3) respiration, glutamate/malate; Table 3
Excerpt: Male Sprague-Dawley rats (8-10 weeks of age) were euthanized with an overdose of carbon dioxide. The liver was rapidly excised and placed in ice-cold phosphate-buffered saline (PBS) before isolation process. Mitochondria were isolated using the MitoCheck® Mitochondrial Isolation Kit (Cayman Chemical #701010, Ann Arbor, Mich.) according to manufacturer's instructions. In brief, approximately 10-14 grams of liver tissues were finely minced using a pair of scissors, and washed repeatedly with ice-cold PBS, followed by Mito Isolation Buffer. The minced tissues were homogenized with 30 ml Mito Homogenization Buffer in 40 ml dounce homogenizer and a smooth glass grinder. The homogenate was split into two clean 30 ml polycarbonate tubes and centrifuged at 1,000×g, 4° C., for 3 minutes. The supernatant was subjected to further centrifugation at 10,000×g, 4° C., for 10 minutes. The supernatant was discarded and mitochondrial pellet was suspended in Mito Isolation Buffer using a glass stirring rod and stored on ice until use. Protein concentration of mitochondria was determined using a bicinchoninic acid protein assay kit (Thermo Scientific, Waltham, Mass.).
Oxygen consumption was monitored as essentially described by Will et al., “Analysis of mitochondrial function using phosphorescent oxygen-sensitive probes,” Nature Protocols Vol. 1(6) (2006) 2563. Briefly, isolated mitochondria (50 μg mitochondrial proteins/state 3 (S3) of mitochondrial respiration for inhibitor identification, 100 μg/S2 for uncoupler identification) were incubated with compounds in 25 μl of Measurement Buffer (MB: 250 mM sucrose, 15 mM KCl, 1 mM EGTA, 5 mM MgCl2, 30 mM K2HPO4, pH 7.4) including 1% DMSO on ice for 1 hour, then mixed with 25 μl of substrate mixture including an oxygen-sensitive phosphorescent dye (MitoXpress Xtra, Agilent, Santa Clara, Calif.), glutamate (25 mM, G1626, Sigma, St. Louis, Mo.), malate (25 mM, M6413, Sigma), ADP (3.3 mM, A2754, Sigma, only for S3 of mitochondrial respiration), Fatty acid free BSA (0.1%, A0281, Sigma), and a complex II-specific inhibitor TTFA (2 μM, T27006, Sigma for the assessment of complex I-mitochondrial respiration with glutamate/malate) in a black wall/clear bottom 384-well plate. The mixtures were covered with HS mineral oil (Agilent) using the Viaflo 384-channel pipette (Integra, Hudson, N.H.). Oxygen consumption was measured for 30 min at 30° C. using a spectrofluorimeter (FLUOstar Omega, BMG Labtech, Cary, N.C.). In S3, DMSO vehicle control and antimycin A (10 μM) were used to define 0% and 100% inhibition. In S2, DMSO vehicle and FCCP (0.5-1 μM) was used to define 0% and 100% uncoupling, respectively. Area under curve typically in a range of 0-12 min (S3) or 0-24 min (S2) was used for calculations. IC50 or UC50 (uncoupling concentration), a concentration that causes 50% of inhibition or maximal (uncoupling) activation of oxygen consumption, was used to evaluate experimental quality. Data were presented as μM (per 50 μg (S3) or 100 μg (S2) mitochondrial proteins). Compounds with IC50: <100 μM (S3) and/or UC50: <200 μM (S2) were considered as high-risk on mitochondrial toxicity. Compounds with 25-50% changes in inhibition and/or uncoupling were categorized as medium-risk, since compounds with >25% changes are considered as responders.
Toxicity associated with mitochondrial dysfunction has presented a problem for promising potential antibiotics as we as other types of therapeutics. The mitochondrial oxygen consumption rate (OCR) assay is considered a reliable indicator of potential internal organ toxicity issues that may occur with powerful antibiotics. The carboxylate compounds of the invention show unexpected lower toxicity than prior art “glycine nitrile” arylomycin analogs (see, e.g., WO 2018/149419) in the mitochondrial oxygen consumption rate (OCR) assay.

[2] = test system: Acinetobacter baumannii ATCC 17978; assay: Serum MIC, broth micro-dilution; type: cell-based; conditions: Acinetobacter baumannii
In short: (§1)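 Half mouse serum, half cation-adjusted MH II broth (v/v) served as test medium; bacteria at final OD600 0.0005 were exposed to serial 2-fold compound dilutions for 22 h, 35° C, and the MIC was determined per CLSI M07-A8.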

[3] = test system: Escherichia coli strain ATCC 25922; assay: Serum MIC, broth micro-dilution; type: cell-based; conditions: Escherichia coli, read-out: E. coli 25922 Serum MIC
In short: as §1

[4] = test system: Klebsiella pneumoniae ATCC 700603; assay: Serum MIC, broth micro-dilution; type: cell-based; conditions: Klebsiella pneumoniae, read-out: K pneumoniae 700603 Serum MIC
In short: as §1

[5] = test system: Pseudomonas aeruginosa PA01; assay: Serum MIC, broth micro-dilution; type: cell-based; conditions: Pseudomonas aeruginosa, read-out: P. aeruginosa 01 Serum MIC
In short: as §1

[6] = ATCC17978, 50% v/v mouse serum in Mueller Hinton II cation adjusted Broth, 35° C., 22 hours, Table 4, read-out: A. baumanii 17978 Serum MIC
[7] = ATCC17978, 50% v/v mouse serum in Mueller Hinton II cation adjusted Broth, 35° C., 22 hours, Table 5, read-out: Acinetobacter baumanii 17978 Serum MIC
[8] = ATCC25922, 50% v/v mouse serum in Mueller Hinton II cation adjusted Broth, 35° C., 22 hours, Table 4
[9] = ATCC700603, 50% v/v mouse serum in Mueller Hinton II cation adjusted Broth, 35° C., 22 hours, Table 4
[10] = PA01, 50% v/v mouse serum in Mueller Hinton II cation adjusted Broth, 35° C., 22 hours, Table 4

SMILES | pIC50 [1] | MIC [2, 6] | MIC [2, 7] | MIC [3, 8] | MIC [4, 9] | MIC [5, 10] | MIC ([2]; ATCC17978, 22 h, read-out: A. baumanii 17978 Serum MIC) | MIC ([2]; ATCC17978, 22 h, read-out: Acinetobacter baumanii 17978 Serum MIC) | MIC ([3]; ATCC25922, 22 h) | MIC ([4]; ATCC700603, 22 h) | MIC ([5]; PA01, 22 h)
Cc1nc(-c2ccc(C(C)(C)C)cc2)nc(C)c1C(=O)N[C@@H](CNS(N)(=O)=O)C(=O)N(C)[C@@H]1C(=O)N[C@@H](C)C(=O)N[C@H](C(=O)O)Cc2ccc(OC[C@H](O)CN)c(c2)-c2cc1cc(OC[C@H](O)CN)c2O [Example 7, (8S,11S,14S)-18-hydroxy-11-methyl-14-[methyl-[(2S)-2-[[2-(4-tert-butyl-phenyl)-4,6-dimethyl-pyrimidine-5-carbonyl]amino]-3-(sulfamoylamino)-propanoyl]amino]-10,13-dioxo-3,17-bis[(2R)-3-amino-2-hydroxy-propoxy]-9,12-diazatricyclo-[13.3.1.12,6]icosa-1(18),2(20),3,5,15(19), 16-hexaene-8-carboxylic acid] | < 3.60 | 9.3 µM (≈ 9.37 µg/mL) | 9.3 µM (≈ 9.37 µg/mL) | 0.42 µM (≈ 0.423 µg/mL) | 0.46 µM (≈ 0.463 µg/mL) | 4.3 µM (≈ 4.33 µg/mL) | – | – | – | – | –
Cc1nc(-c2ccc(OCCC(C)(C)C)cc2)ncc1C(=O)N[C@@H](CNS(N)(=O)=O)C(=O)N(C)[C@@H]1C(=O)N[C@@H](C)C(=O)N[C@H](C(=O)O)Cc2ccc(OC[C@H](O)CN)c(c2)-c2cc1cc(OC[C@H](O)CN)c2O [Example 16, (8S,11S,14S)-18-hydroxy-11-methyl-14-[methyl-[(2S)-2-[[2-[4-(3,3-dimethyl-butoxy)phenyl]-4-methyl-pyrimidine-5-carbonyl]amino]-3-(sulfamoylamino)-propanoyl]amino]-10,13-dioxo-3,17-bis[(2R)-3-amino-2-hydroxy-propoxy]-9,12-diazatricyclo-[13.3.1.12,6]icosa-1(18),2(20),3,5,15(19), 16-hexaene-8-carboxylic acid] | 4.48 | – | – | – | – | – | 12 µM (≈ 12.4 µg/mL) | 12 µM (≈ 12.4 µg/mL) | 0.44 µM (≈ 0.456 µg/mL) | 0.63 µM (≈ 0.653 µg/mL) | 6 µM (≈ 6.22 µg/mL)
Cc1nc(-c2ccc(C(C)(C)C)cc2)nc(N)c1C(=O)N[C@@H](CCN)C(=O)N(C)[C@@H]1C(=O)N[C@@H](C)C(=O)N[C@H](C(=O)O)Cc2ccc(OC[C@H](O)CN)c(c2)-c2cc1cc(OC[C@H](O)CN)c2O [Example 24, (8S,11S,14S)-18-hydroxy-11-methyl-14-[methyl-[(2S)-4-amino-2-[[4-amino-2-(4-tert-butylphenyl)-6-methyl-pyrimidine-5-carbonyl]amino]-butanoyl]amino]-10,13-dioxo-3,17-bis[(2R)-3-amino-2-hydroxy-propoxy]-9,12-diazatricyclo-[13.3.1.12,6]icosa-1(18),2(20),3,5,15(19), 16-hexaene-8-carboxylic acid] | < 3.70 | 16 µM (≈ 15.1 µg/mL) | 16 µM (≈ 15.1 µg/mL) | 0.5 µM (≈ 0.472 µg/mL) | 0.25 µM (≈ 0.236 µg/mL) | 16 µM (≈ 15.1 µg/mL) | – | – | – | – | –
C[C@@H]1NC(=O)[C@@H](N(C)C(=O)[C@H](CCN)NC(=O)c2c(N)nc(-c3ccc(C(C)(C)C)cc3)nc2C(F)F)c2cc(OC[C@H](O)CN)c(O)c(c2)-c2cc(ccc2OC[C@H](O)CN)C[C@@H](C(=O)O)NC1=O [Example 32, (8S,11S,14S)-18-hydroxy-11-methyl-14-[methyl-[(2S)-4-amino-2-[[2-(4-tert-butylphenyl)-4-amino-6-difluoro-methyl-pyrimidine-5-carbonyl]amino]-butanoyl]amino]-10,13-dioxo-3,17-bis[(2R)-3-amino-2-hydroxy-propoxy]-9,12-diazatricyclo-[13.3.1.12,6]icosa-1(18),2(20),3,5,15(19), 16-hexaene-8-carboxylic acid] | < 4.00 | 4 µM (≈ 3.92 µg/mL) | 4 µM (≈ 3.92 µg/mL) | 0.25 µM (≈ 0.245 µg/mL) | 0.25 µM (≈ 0.245 µg/mL) | 16 µM (≈ 15.7 µg/mL) | – | – | – | – | –
Cc1nc(-c2ccc(C(C)(C)C)cc2)ncc1C(=O)N[C@@H](CNS(N)(=O)=O)C(=O)N(C)[C@@H]1C(=O)N[C@@H](C)C(=O)N[C@H](C(=O)O)Cc2ccc(OC[C@H](O)CN)c(c2)-c2cc1cc(OC[C@H](O)CN)c2O [Example 8, (8S,11S,14S)-18-hydroxy-11-methyl-14-[methyl-[(2S)-2-[[2-(4-tert-butyl-phenyl)-4-methyl-pyrimidine-5-carbonyl]amino]-3-(sulfamoylamino)-propanoyl]amino]-10,13-dioxo-3,17-bis[(2R)-3-amino-2-hydroxy-propoxy]-9,12-diazatricyclo-[13.3.1.12,6]icosa-1(18),2(20),3,5,15(19), 16-hexaene-8-carboxylic acid] | 4.55 | 16 µM (≈ 15.9 µg/mL) | 16 µM (≈ 15.9 µg/mL) | 0.38 µM (≈ 0.377 µg/mL) | 0.5 µM (≈ 0.497 µg/mL) | 7 µM (≈ 6.95 µg/mL) | – | – | – | – | –
Cc1nc(-c2ccc(C(F)(F)C(C)C)cc2)nc(N)c1C(=O)N[C@@H](CNS(N)(=O)=O)C(=O)N(C)[C@@H]1C(=O)N[C@@H](C)C(=O)N[C@H](C(=O)O)Cc2ccc(OC[C@H](O)CN)c(c2)-c2cc1cc(OC[C@H](O)CN)c2O [Example 38, (8S,11S,14S)-14-[[(2S)-2-[[4-amino-2-[4-(1,1-difluoro-2-methyl-propyl)-phenyl]-6-methyl-pyrimidine-5-carbonyl]amino]-3-(sulfamoylamino)-propanoyl]-methyl-amino]-3,17-bis[(2R)-3-amino-2-hydroxy-propoxy]-18-hydroxy-11-methyl-10,13-dioxo-9,12-diazatri-cyclo[13.3.1.12,6]icosa-1(18),2(20),3,5,15(19), 16-hexaene-8-carboxylic acid] | < 4.00 | 16 µM (≈ 16.7 µg/mL) | 16 µM (≈ 16.7 µg/mL) | 0.5 µM (≈ 0.522 µg/mL) | 0.5 µM (≈ 0.522 µg/mL) | 12 µM (≈ 12.5 µg/mL) | – | – | – | – | –
Cc1nc(-c2ccc(C(C)(C)C)cc2)nc(N)c1C(=O)N[C@@H](CNS(N)(=O)=O)C(=O)N(C)[C@@H]1C(=O)N[C@@H](C)C(=O)N[C@H](C(=O)O)Cc2ccc(OC[C@H](O)CN)c(c2)-c2cc1cc(OC[C@@H](O)CN)c2O [Example 50, (8S,11S,14S)-14-[[(2S)-2-[[4-amino-2-(4-tert-butylphenyl)-6-methyl-pyrimidine-5-carbonyl]amino]-3-(sulfamoylamino)-propanoyl]-methyl-amino]-3-[(2R)-3-amino-2-hydroxy-propoxy]-17-[(2S)-3-amino-2-hydroxy-propoxy]-18-hydroxy-11-methyl-10,13-dioxo-9,12-diazatri-cyclo[13.3.1.12,6]icosa-1(19),2(20),3,5,15,17-hexaene-8-carboxylic acid] | < 4.00 | 8 µM (≈ 8.06 µg/mL) | 8 µM (≈ 8.06 µg/mL) | 0.75 µM (≈ 0.756 µg/mL) | 0.75 µM (≈ 0.756 µg/mL) | 4 µM (≈ 4.03 µg/mL) | – | – | – | – | –
